Source: patent US6660309B2, “Antitumor agent” (Biozak, Inc., priority 2001, dated 2003)

What was measured:
βTC-6 cells = test: Tolbutamide-induced insulin secretion in βTC-6 cells (FIG. 2); format: cell-based
Method: FIG. 2 is a graph showing the effect of Composition A on tolbutamide-induced insulin secretion in βTC-6 cells.
(§1) In order to avoid interference from the natural insulin secretagogue glucose, the effect of Composition A on insulin secretion was studied under glucose-free conditions. The sulfonylurea compound, tolbutamide was used as the insulin secretagogue in the studies of the effect of Composition A on stimulated insulin secretion.
(§2) Insulin assays were performed using the rat insulin assay kit purchased from Crystal Chemists, Inc. (Chicago, Ill., USA). This kit uses a in an Enzyme Linked Immunosorbent Assay (non-competitive sandwich method). The assay was performed according to the manufacturer's protocol. Briefly, the standard or sample (5 μl) diluted with a sample diluent was added to the wells of a multi-well polystyrene plate. The wells were precoated with antiinsulin antibody. After 2 hours of incubation, the wells were thoroughly washed with a washing buffer. A peroxidase-conjugated antiinsulin antibody solution was then added to the well. […] The color was read in an microplate reader using a 405 filter. […]
(§3) The effect of Composition A on tolbutamide-induced insulin secretion in HIT-T15 and βTC-6 cells is shown in […]. […] Samples were measured 1 hour later. […]

HIT-T15 cells = test: Tolbutamide-induced insulin secretion in HIT-T15 cells (FIG. 3); format: cell-based; settings: FIG. 3, tolbutamide alone, 1 hour; without tolbutamide about 0.17
Method: FIG. 3 is a graph showing the effect of Composition A on tolbutamide-induced insulin secretion in HIT-T15 cells.
as §1, §2, §3

## CCCCNC(=O)NS(=O)(=O)c1ccc(C)cc1 [tolbutamide]
βTC-6 cells; FIG. 2, tolbutamide 10 μg/ml alone, 1 hour, without tolbutamide 0.9
  Insulin production with tolbutamide alone: 1.2 ng/ml/mg protein
βTC-6 cells; βTC-6, 1-hour period following glucose deprivation and replacement of the medium
  More insulin secreted by tolbutamide-treated cells than by untreated cells: approximately 30%
HIT-T15 cells
  Insulin secretion with tolbutamide alone: about 0.3 ng/ml/mg protein
